These results are taken from paper PMC11588021, “Sequence-defined phosphoestamers for selective inhibition of the KRAS^G12D/RAF1 interaction” (Chemical Science, 2024).

Where “and” joins values, the source holds several entries; their conditions need not be identical. Equal values may be shown once. Entries after “also recorded” stand apart in the source; their conditions may differ.

Assay [1] deals with T1, KRAS^WT-GMPPnP / RAF1-GFP interaction (Homo sapiens, UniProt P01116).
T1 construct: and KRas4B(1-169)[G12D], optimised for expression in E.coli; His6 (N); Avi tag (biotinylated with BirA) (N); TEV site (N); made in house; host or cells: E. coli BL21(DE3) Gold for KRAS; E. coli BL21(DE3) for RAF1-RBD-GFP
The assay can be described thus: KRAS^WT/RAF1-RBD interaction assay (same plate assay). The note with it: 'high' and 'low' concentrations, approximately IC50 ÷ 3 and IC50 × 3. Type of assay: biochemical. The method, then: Since four phosphoestamers were determined to have consistent dissociation activity between KRAS^G12D-GMPPnP and RAF1-GFP, we then used the same assay to determine whether these molecules would have any activity against KRAS^WT-GMPPnP or whether they would be selective for the mutant form (Fig. 5e).
To the 96 well plate, 100 µL was added to each well containing 2 µg/mL KRASG12D-GMPPnP or KRASWT-GMPPnP in coating buffer (see buffers, page 3). The plate was shaken on a plate rotator at 300 rpm and left to incubate at 4 °C overnight. After incubation, the KRASG12D/WT solution was removed, and the plate was then washed with 100 µL per well of blocking buffer twice. 100 µL of blocking buffer was then added per well and the plate was incubated at 37 °C for one hour. […] The emission spectrum o f GFP (490 – 560 nm) was measured on the plate reader.
GraphPad Prism (9.5.1) was used to calculate the area under the curve (AUC) of the emission spectra between 490 and 540 nm. IC50 values were calculated on GraphPad Prism, using the non-linea r regression fit (Sigmoidal, 4PL, X is concentration) analysis.
To the well plate, 100 µL was added to each well containing 2 µg/mL of the 4:1 conjugate of KRASG12D-G M PP nP -streptavidin fluorescein in coating buffer. […] The emission spectrum of fluorescein (500 – 600 nm) was measured using the plate reader. […]

The target in assay [2] is T2, KRAS^G12D-GMPPnP / RAF1-RBD-GFP interaction (Homo sapiens, UniProt P01116, G12D).
T2 construct: and KRas4B(1-169)[G12D], optimised for expression in E.coli; His6 (N); Avi tag (biotinylated with BirA) (N); TEV site (N); made in house; host or cells: E. coli BL21(DE3) Gold for KRAS; E. coli BL21(DE3) for RAF1-RBD-GFP
The assay can be described thus: KRAS^G12D/RAF1-RBD interaction assay (plate coated with KRAS, RAF1-RBD-GFP fluorescence). The assay is classed as biochemical. How it is done: Phosphoestamers O1–O6 were resynthesised on a 1 μmol scale using the DNA synthesiser and the yields were determined by manually cleaving the final DMT protecting group of each molecule and quantifying the DMT cation by UV-visible spectroscopy (ESI Section 2.4 ^†). The achievement of desired length and purity was confirmed by polyacrylamide gel electrophoresis (Fig. 5a). The resynthesised phosphoestamers were purified away from smaller molecules using C18 spin tips. To ensure the assay was viable, a positive control Ch-3 (Fig. 5a) known to disrupt KRAS^G12D interactions[50] was synthesised. […] Any KRAS sites not blocked by the phosphoestamers would interact with the RAF1-GFP and result in a fluorescent signal which would be detected. In this assay, we first established that both KRAS^G12D-GMPPnP and RAF1-RBD-GFP were required to give a fluorescence signal.
To the 96 well plate, 100 µL was added to each well containing 2 µg/mL KRASG12D-GMPPnP or KRASWT-GMPPnP in coating buffer (see buffers, page 3). […] The emission spectrum o f GFP (490 – 560 nm) was measured on the plate reader.
GraphPad Prism (9.5.1) was used to calculate the area under the curve (AUC) of the emission spectra between 490 and 540 nm. IC50 values were calculated on GraphPad Prism, using the non-linea r regression fit (Sigmoidal, 4PL, X is concentration) analysis. […]

Assay [3] relates to KRAS^G12D (inactive GDP-form). On the set-up: method as in PMID 34889605. The note with it: binds to the inactive GDP-form of the protein; cited from earlier work.

In the case of “NDI-C12-C12-C12-NDI-BPA [Phosphoestamer O2]”, the “Effect on KRAS^WT-GMPPnP/RAF1-GFP interaction” value in assay [1] was “only O5 caused a decrease in fluorescent signal; also recorded: inactive”. Further, the IC50 in assay [2] (AUC of GFP emission 490-540 nm, three biological repeats (O4 n = 4)) is < 0.1 µM and 0.0709 µM.

In the case of `COc1cccc(-c2ccc(Nc3ccc(CN(C)C)cc3)c(OC)c2F)c1` [Ch-3, reference compound], half-maximal inhibition in assay [2] (positive control, n = 3) (IC50) required 6.35 ± 0.2 µM. In the case of `C#Cc1c(F)ccc2cc(O)cc(-c3ncc4c(N5CC6CCC(C5)N6)nc(OC[C@@]56CCCN5C[C@H](F)C6)nc4c3F)c12` [MRTX1133], in assay [3], the IC50 is 0.005 µM.

Broadly, the IC50 is the concentration needed to halve the response being measured.
